Results as given in ChEMBL document CHEMBL4421722, “Inhibitors of protein prenyltransferases” (2013).

How the values were obtained:
[1] = organism: Rattus norvegicus; test: Inhibition of rat recombinant geranylgeranyltransferase type I expressed in Escherichia coli assessed as residual enzyme activity for geranylgeranylation of K-Ras4B at 50 uM incubated for 30 mins in presence of [3H]GGPP by scintillation counting assay relative to control
[2] = organism: Rattus norvegicus; test: Inhibition of rat recombinant geranylgeranyltransferase type I expressed in Escherichia coli assessed as residual enzyme activity for geranylgeranylation of RhoA at 50 uM incubated for 30 mins in presence of [3H]GGPP by scintillation counting assay relative to control

Structure (SMILES) | Activity [1] | Activity [2]
CCOc1ccc([C@@H]2C[C@@H](Sc3ccc(Cl)cc3)[C@H](C(=O)O)CN2S(=O)(=O)c2ccc(C)cc2)cc1 | 72.4% | 2.6%
C=CCS[C@H]1[C@@H](C(=O)O)[C@H](c2ccc(Cl)cc2)N(S(=O)(=O)c2ccc(C)cc2)[C@@H]1CC1CCCC1 | 25.2% | 7.7%
Cc1ccc(S(=O)(=O)N2C[C@@H](C(=O)O)[C@H](SCCC(C)C)C[C@H]2c2cccc(Br)c2)cc1 | 13.7 to 19.2% | 2.3%
Cc1ccccc1S(=O)(=O)N1[C@@H](c2cccc(Br)c2)C(C(=O)O)=CC[C@H]1c1ccc(Cl)cc1 | 10.6 to 19.2% | 8.8%
CCCC[C@@H]1[C@@H](Sc2ccc(C)cc2)[C@@H](C(=O)O)[C@H](c2cccc(F)c2)N1S(=O)(=O)c1ccc(C)cc1 | 31.5% | 7.1%
Cc1ccc(S(=O)(=O)N2C[C@@H](C(=O)O)[C@H](Sc3ccccc3)C[C@H]2c2ccc(Cl)cc2)cc1 | 40% | 4.6%
Cc1ccccc1S(=O)(=O)N1[C@H](CC2CCCC2)[C@@H](SCCC(=O)OC(C)(C)C)[C@@H](C(=O)O)[C@@H]1c1ccc(Cl)cc1 | 10% | 7.8%
Cc1ccc(S(=O)(=O)N2C[C@@H](C(=O)O)[C@H](Sc3ccccc3)C[C@H]2c2ccccc2F)cc1 | 51% | 8.1%
C=CCS[C@H]1[C@@H](C(=O)O)[C@H](c2ccc(Br)cc2)N(S(=O)(=O)c2ccc(C)cc2)[C@@H]1CCCCCC | 15.5% | 5.5%
CCCCS[C@@H]1C[C@@H](c2cccc(Cl)c2)N(S(=O)(=O)c2ccc(C)cc2)C[C@H]1C(=O)O | 8.5 to 16.7% | -1.2%
Cc1ccc(S(=O)(=O)N2C[C@@H](C(=O)O)[C@H](SCCc3ccccc3)C[C@H]2c2ccccc2F)cc1 | 3.4 to 6.8% | 3.1%
Cc1ccc(S(=O)(=O)N2[C@@H](c3cccc(C)c3)C(C(=O)O)=CC[C@H]2c2ccc(Cl)c(Cl)c2)cc1 | 12.6 to 20.2% | 10.3%
COc1ccc([C@@H]2C[C@@H](SCc3ccc(Cl)cc3)[C@H](C(=O)O)CN2S(=O)(=O)c2ccc(Cl)cc2)cc1 | 20.8 to 27.1% | 8.5%
COc1ccc(S[C@H]2[C@@H](C(=O)O)[C@H](c3ccc(Cl)cc3)N(S(=O)(=O)c3ccc(Cl)cc3)[C@@H]2C(C)C)cc1 | 48.7% | 8%
Cc1ccccc1S(=O)(=O)N1C[C@@H](C(=O)O)[C@H](Sc2ccccc2)C[C@H]1c1ccc(Cl)cc1 | 75.5% | 7.8%
Cc1ccc(S(=O)(=O)N2C[C@@H](C(=O)O)[C@H](SCCc3ccccc3)C[C@H]2c2ccc(Cl)cc2)cc1 | 15.1 to 20.8% | 5.9%
CCC[C@@H]1[C@@H](Sc2ccc(OC)cc2)[C@@H](C(=O)O)[C@H](c2cccc(F)c2)N1S(=O)(=O)c1ccc(C)cc1 | 27.4% | 3.5%
Cc1ccc(S(=O)(=O)N2C[C@@H](C(=O)O)[C@H](Sc3ccc(Cl)cc3)C[C@H]2c2ccc(Cl)cc2)cc1 | 52.1% | 4.9%
C=CCS[C@H]1[C@@H](C(=O)O)[C@H](c2ccc(Cl)c(Cl)c2)N(S(=O)(=O)c2ccc(C)cc2)[C@@H]1CCCCCC | 15.1% | 6.8%
Cc1ccccc1S(=O)(=O)N1[C@@H](c2ccccc2)C(C(=O)O)=CC[C@H]1c1ccc(Cl)cc1 | 13.4% | 5.8%
Cc1ccc([C@@H]2C[C@@H](SCc3ccc(Cl)cc3)[C@H](C(=O)O)CN2S(=O)(=O)c2ccccc2)cc1 | 22 to 29.6% | 17.2%
Cc1ccc(S(=O)(=O)N2C[C@@H](C(=O)O)[C@H](SCc3ccccc3)C[C@H]2c2cccc(Br)c2)cc1 | 5.5 to 7.6% | 2.9%
O=C(O)C1=CC[C@@H](c2ccc(Cl)cc2)N(S(=O)(=O)c2ccc(Cl)cc2)[C@H]1c1cccc(Cl)c1 | 33.1% | 26.7%
Cc1ccc(S(=O)(=O)N2C[C@@H](C(=O)O)[C@H](SCc3ccccc3)C[C@H]2c2cccc(Cl)c2)cc1 | 11.5 to 18.1% | 8.3%
Cc1ccc(S(=O)(=O)N2[C@@H](c3ccc(Cl)cc3)C(C(=O)O)=CC[C@H]2c2ccc(Cl)c(Cl)c2)cc1 | 17.7 to 21.3% | 12.1%
CCCC[C@@H]1[C@@H](Sc2ccc(OC)cc2)[C@@H](C(=O)O)[C@H](c2cccc(F)c2)N1S(=O)(=O)c1ccc(C)cc1 | 27.4% | 3.5%

Structure (SMILES) | Activity [1] | Activity [2]
Cc1ccc([C@@H]2C[C@@H](Sc3ccc(Cl)cc3)[C@H](C(=O)O)CN2S(=O)(=O)c2ccc(Cl)cc2)cc1 | 42.3% | 3.3%
Cc1ccc(S(=O)(=O)N2C[C@@H](C(=O)O)[C@H](SCCc3ccccc3)C[C@H]2c2ccccc2)cc1 | 15.2 to 16.5% | 5.8%
Cc1ccc(S(=O)(=O)N2C[C@@H](C(=O)O)[C@H](SCc3ccc(Cl)cc3)C[C@H]2c2cccc(Br)c2)cc1 | 7.8 to 8% | 3.2%
CCCCCC[C@@H]1[C@@H](SC2CCCC2)[C@@H](C(=O)O)[C@H](c2ccc(C#N)cc2)N1S(=O)(=O)c1ccc(C)cc1 | 20.1% | 7.4%
Cc1ccc([C@@H]2C[C@@H](Sc3ccccc3)[C@H](C(=O)O)CN2S(=O)(=O)c2ccccc2C)cc1 | 69.5% | 17.5%
Cc1ccc([C@@H]2C[C@@H](SCCc3ccccc3)[C@H](C(=O)O)CN2S(=O)(=O)c2ccc(Cl)cc2)cc1 | 22.7 to 27% | 9.5%
Cc1ccc(S(=O)(=O)N2C[C@@H](C(=O)O)[C@H](SCc3ccc(Cl)cc3)C[C@H]2c2cccc(Cl)c2)cc1 | 11.9 to 13.5% | 6%
Cc1ccc(S(=O)(=O)N2C[C@@H](C(=O)O)[C@H](SCCc3ccccc3)C[C@H]2c2cccc(Br)c2)cc1 | 4.7 to 7.3% | 3.1%
CCOc1ccc([C@@H]2C[C@@H](SCCc3ccccc3)[C@H](C(=O)O)CN2S(=O)(=O)c2ccc(C)cc2)cc1 | 24.6 to 37.2% | 14.5%
COc1ccc([C@H]2C(C(=O)O)=C[C@@H](C(C)(C)C)N2S(=O)(=O)c2ccc(C)cc2)cc1OC | 23.4% | 6.1%
Cc1ccc(S(=O)(=O)N2[C@@H](c3cccc(Cl)c3)C(C(=O)O)=CC[C@H]2c2cccc(Br)c2)cc1 | 9.8 to 24.4% | 7.9%
CCCCCS[C@@H]1C[C@@H](c2cccc(Br)c2)N(S(=O)(=O)c2ccc(C)cc2)C[C@H]1C(=O)O | 28.5 to 85.1% | 10.8%
Cc1ccc(S(=O)(=O)N2C[C@@H](C(=O)O)[C@H](SCc3ccccc3)C[C@H]2c2ccc(Cl)cc2)cc1 | 11.5 to 15.8% | 4.6%
Cc1ccc([C@@H]2C[C@@H](SCCc3ccccc3)[C@H](C(=O)O)CN2S(=O)(=O)c2ccc(C)cc2)cc1 | 22.6 to 35.4% | 12.4%
Cc1ccc(S(=O)(=O)N2[C@@H](c3ccccc3)C(C(=O)O)=CC[C@H]2c2cccc(Br)c2)cc1 | 35.2% | 19.4%
Cc1ccc(S(=O)(=O)N2C[C@@H](C(=O)O)[C@H](SCC(C)C)C[C@H]2c2ccccc2)cc1 | 26 to 85.1% | 10.7%
C=CCS[C@H]1[C@@H](C(=O)O)[C@H](c2ccc(Cl)cc2)N(S(=O)(=O)c2ccccc2C)[C@@H]1CCCCCC | 24.9% | 6%
CCC[C@@H]1[C@@H](SCCC(=O)OC(C)(C)C)[C@@H](C(=O)O)[C@H](c2cccc(F)c2)N1S(=O)(=O)c1ccc(C)cc1 | 20.2% | 7.8%
C=CCS[C@H]1[C@@H](C(=O)O)[C@H](c2ccc(Cl)c(Cl)c2)N(S(=O)(=O)c2ccc(C)cc2)[C@@H]1CC1CCCC1 | 12.1% | 8.6%
Cc1ccc([C@@H]2C[C@@H](SCc3ccccc3)[C@H](C(=O)O)CN2S(=O)(=O)c2ccccc2C)cc1 | 32 to 35.6% | 17.5%
COc1cccc([C@@H]2C[C@@H](SCCc3ccccc3)[C@H](C(=O)O)CN2S(=O)(=O)c2ccc(C)cc2)c1 | 20.8 to 24.2% | 11.4%
COc1ccc([C@@H]2C[C@@H](SCc3ccc(Cl)cc3)[C@H](C(=O)O)CN2S(=O)(=O)c2ccccc2)cc1 | 29.2 to 31.9% | 13.4%
CC[C@@H]1[C@@H](Sc2ccc(OC)cc2)[C@@H](C(=O)O)[C@H](c2cccc(Cl)c2)N1S(=O)(=O)c1ccc(C)cc1 | 25.5% | 6.5%
COc1ccc([C@@H]2C[C@@H](SCc3ccccc3)[C@H](C(=O)O)CN2S(=O)(=O)c2ccc(Cl)cc2)cc1 | 25.9 to 28.7% | 11.9%
Cc1ccccc1S(=O)(=O)N1[C@@H](c2ccccc2F)C(C(=O)O)=CC[C@H]1c1ccc(Cl)cc1 | 8.4% | 4.1%
C=CCS[C@H]1[C@@H](C(=O)O)[C@H](c2ccc(OC)c(OC)c2)N(S(=O)(=O)c2ccc(C)cc2)[C@@H]1CCCCCC | 22.3% | 8.1%
